Test results from patent publication US5622947A, “Benzoheterocyclic compounds and vasopressin antagonist and oxytocin antagonist compositions containing a benzoheterocyclic compound” (Otsuka Pharmaceutical Co., Ltd., priority 1992, dated 1997).
Where a name gives a salt, the structure may show the parent alone.

Key:
[1] = target: T1, V2 Recepter (rat kidney plasma membrane preparations) (Rattus norvegicus, UniProt Q00788); experiment: V2 Recepter binding assay; conditions: [3H]-Arg-vasopressin 4×10^-10 M, 4° C., pH 8.0, rat kidney plasma membrane
T1 construct: rat kidney plasma membrane preparations; from tissue; host or cells: rat kidney plasma membranes
Description: Test 2: V2 Recepter binding assay
By using rat kidney plasma membrane preparations prepared according to Hechter's method [by O. Hechter: J. Bio. Chem., 2.53, 3211 (1978)], the plasma membrane (100,000 dpm, 4×10^-10 M) of [^3 H]-Arg-vasopressin and a test compound (0.6 mg, 10^-10 to 10^-5 M) were incubated at 4° C. for 3 hours in 250 μl (in total volume) of 100 mM Tris-HCl buffer (pH=8.0), containing, 5 mM MgCl2, 1 mM EDTA and 0.1% BSA. After the incubation, the mixture, the mixture was filtered by using a glass filter (GF/F) so as to separate the membrane preparation combining with vasopressin, then washed twice with the buffer (5 ml). This glass filter was taken out and mixed with liquid scintillation cocktail. The amount of [^3 H]-vasopressin combining with the membrane was measured by a liquid scintillation counter and the rate of inhibitory effect of the test compound was calculated according to the following equation: Rate of the inhibitory
C1 : the amount of [^3 H]-vasopressin combining with the membrane in the presence of the testcompound of a known amount,
(§1) C0 : the amount of [^3 H]-vasopressin combining with the membrane in the absence of the test compound,
B1 : the amount of [^3 H]-vasopressin combining with the mebrane in the presence of the excess amount of vasopressin (10^-6 M).
The results are expressed as IC50 value, which is the concentration of the test compound required to achieve the inhibitory effect in the rate of 50%, and are shown in the following Table 157.

[2] = target: T2, Oxytocin receptor (uterin muscle membrane preparation) (Rattus norvegicus, UniProt P70536); experiment: Oxytocin receptor binding assay; conditions: [3H]-oxytocin 10^-9 M, 25°, one hour, pH 8.0, uterin muscle membrane, DES-treated
T2 construct: was homogenized, which was used as a membrane; from tissue; host or cells: uterine muscle membranes from diethylstilbestrol-treated animals
T2 sequence (P70536 1-388): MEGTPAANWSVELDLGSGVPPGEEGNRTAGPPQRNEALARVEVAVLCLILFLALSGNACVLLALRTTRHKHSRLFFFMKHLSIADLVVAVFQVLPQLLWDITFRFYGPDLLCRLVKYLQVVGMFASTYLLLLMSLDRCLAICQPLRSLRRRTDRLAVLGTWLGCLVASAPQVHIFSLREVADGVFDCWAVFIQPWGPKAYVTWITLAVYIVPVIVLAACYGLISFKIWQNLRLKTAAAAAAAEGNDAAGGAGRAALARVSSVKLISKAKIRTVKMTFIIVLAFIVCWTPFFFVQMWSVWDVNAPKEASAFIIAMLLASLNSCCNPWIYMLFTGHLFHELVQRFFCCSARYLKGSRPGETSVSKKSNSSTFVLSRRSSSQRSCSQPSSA
How it was run: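 Rat uterine membranes (0.2 mg; DES-primed day before) incubated 1 h at 25° with [3H]-oxytocin (10^-9 M) and compound (10^-9 to 10^-5 M) in 100 mM Tris-HCl pH 8.0, 5 mM MgCl2, 1 mM EDTA, 0.1% BSA. Filter-bound radioactivity counted; nonspecific with 5×10^-6 M oxytocin; IC50 reported.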

[3] = target: T3, V1 Recepter (rat liver plasma membrane preparations) (Rattus norvegicus, UniProt P30560); experiment: V1 Recepter binding assay; conditions: [3H]-Arg-vasopressin 2×10^-10 M, 37° C., 10 minutes, pH 8.0, rat liver plasma membrane
T3 construct: rat liver plasma membrane preparations; from tissue; host or cells: rat liver plasma membranes
Description: Test-1: V1 Recepter binding assay
By using rat liver plasma membrane preparations prepared according to Ichiraha's method [by Akira Ichihara: J. Bio. Chem., 258, 9283 (1983)], the plasma membrane (50,000 dpm, 2×10^-10 M) of [^3 H]-Arg-vasopressin and a test compound (60 μg, 10^-8 to 10^-4 M) were incubated at 37° C. for 10 minutes in 250 μl (in total volume) of 100 mM Tris-HCl buffer (pH=8.0), containing 5 mM MgCl2, 1 mM EDTA and 0.1% BSA. After the incubation, the mixture was filtered three times by using a glass filter (GF/F) so as to separate the membrane preparation by combining with vasopressin and then washed with the buffer (5 ml). This glass filter was taken out and mixed with a liquid of scintillation cocktail. The amount of [^3 H]-vasopressin combining with the membrane was measured by liquid scintillation counter and the rate of inhibitory effect of the test compound was calculated according to the following equation: […]
C1 : the amount of [^3 H]-vasopressin combining with the membrane in the presence of the test compound of a known amount,
as §1
B1 : the amount of [^3 H]-vasopressin combining with the membrane in the presence of the excess amount of vasopressin (10^-6 M).
The results are expressed as IC50 value, which is the concentration of the test compound required to achieve the inhitory effect in the rate of 50% and are shown in the following Table 156.

T3 sequence (P30560 whole entry): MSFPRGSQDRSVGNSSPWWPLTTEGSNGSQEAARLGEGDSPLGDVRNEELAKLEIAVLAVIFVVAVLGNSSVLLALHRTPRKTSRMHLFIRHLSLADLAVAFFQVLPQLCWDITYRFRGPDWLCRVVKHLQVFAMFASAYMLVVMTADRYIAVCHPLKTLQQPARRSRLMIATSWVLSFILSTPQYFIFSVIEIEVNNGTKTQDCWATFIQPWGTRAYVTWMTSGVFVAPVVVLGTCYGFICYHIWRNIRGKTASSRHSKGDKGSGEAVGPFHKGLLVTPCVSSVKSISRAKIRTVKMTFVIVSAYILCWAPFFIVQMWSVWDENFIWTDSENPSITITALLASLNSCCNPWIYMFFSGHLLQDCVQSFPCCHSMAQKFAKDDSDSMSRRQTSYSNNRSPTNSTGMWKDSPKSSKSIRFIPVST
T1 sequence (Q00788 whole entry): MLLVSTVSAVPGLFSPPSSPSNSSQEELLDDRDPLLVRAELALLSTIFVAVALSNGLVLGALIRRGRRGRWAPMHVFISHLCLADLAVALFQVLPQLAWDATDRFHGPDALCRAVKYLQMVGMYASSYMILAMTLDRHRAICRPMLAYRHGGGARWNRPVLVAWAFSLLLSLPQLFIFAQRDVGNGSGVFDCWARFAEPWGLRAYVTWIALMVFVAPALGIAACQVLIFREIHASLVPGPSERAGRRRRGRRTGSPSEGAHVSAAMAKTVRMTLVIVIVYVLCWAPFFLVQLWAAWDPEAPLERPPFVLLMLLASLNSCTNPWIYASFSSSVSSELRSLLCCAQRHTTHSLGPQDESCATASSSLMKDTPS

IC50 [1] | IC50 [2] | IC50 [3] | SMILES
0.004 µM | 0.032 µM | 0.023 µM | COc1cc(NC(=O)c2ccccc2Cl)ccc1C(=O)N1CCCC(CC(=O)Nc2ccncc2)c2cc(Cl)ccc21 (stereo not drawn) [Example 127, 5-(4-Pyridyl)aminocarbonylmethyl-7-chloro-1-[2-methoxy-4-(2-chlorobenzoylamino)benzoyl]-2,3,4,5-tetrahydro-1H-benzoazepine]
0.01 µM | 0.154 µM | 0.054 µM | COc1cc(NC(=O)c2ccccc2Cl)ccc1C(=O)N1CCCC(CCN2CCN(S(C)(=O)=O)CC2)c2cc(Cl)ccc21 (stereo not drawn) [Example 146, 5-[2-(4-Methanesulfonyl-1-piperazinyl)ethyl]-7-chloro-1-[2-methoxy-4-(2-chlorobenzoylamino)-benzoyl]-2,3,4,5-tetrahydro-1H-benzoazepine]
0.0056 µM | 0.147 µM | 0.007 µM | C=CCNCCOC1CCCN(C(=O)c2ccc(NC(=O)c3ccccc3Cl)cc2OC)c2ccc(Cl)cc21 (stereo not drawn) [Example 169, 5-(2-Allylaminoethoxy)-7-chloro-1-[2-methoxy-4-(2-chlorobenzoylamino)benzoyl]-2,3,4,5-tetrahydro-1H-benzoazepine.cndot.hydrochloride]
0.0043 µM | 0.151 µM | 0.037 µM | COc1cc(NC(=O)c2ccccc2Cl)ccc1C(=O)N1CCCC(OCCNC(N)=O)c2cc(Cl)ccc21 (stereo not drawn) [Example 136, 5-(2-Ureidoethoxy)-7-chloro-1-[2-methoxy-4-(2-chlorobenzoylamino)benzoyl]-2,3,4,5-tetrahydro-1H-benzoazepine]
0.014 µM | 0.13 µM | 0.031 µM | COc1cc(NC(=O)c2ccccc2Cl)ccc1C(=O)N1CCCC(CC(=O)Nc2ccccc2Cl)c2cc(Cl)ccc21 (stereo not drawn) [Example 158, 5-(2-Chloroanilino)carbonylmethyl-7-chloro-1-[2-methoxy-4-(2-chlorobenzoylamino)benzoyl]-2,3,4,5-tetrahydro-1H-benzoazepine]
0.015 µM | 0.317 µM | 0.11 µM | COc1cc(NC(=O)c2ccccc2Cl)ccc1C(=O)N1CCCC(OCCn2ccnc2)c2cc(Cl)ccc21 (stereo not drawn) [Example 171, 5-[2-(1-Imidazolyl)ethoxy]-7-chloro-1-[2-methoxy-4-(2-chlorobenzoylamino)benzoyl]-2,3,4,5-tetrahydro-1H-benzoazepine]
0.012 µM | 0.197 µM | 0.021 µM | COc1cc(NC(=O)c2ccccc2Cl)ccc1C(=O)N1CCCC(CC(=O)NCCc2cccn2C)c2cc(Cl)ccc21 (stereo not drawn) [Example 154, 5-[2-(1-Methyl-2-pyrrolyl)ethyl]aminocarbonyl-methyl-7-chloro-1-[2-methoxy-4-(2-chlorobenzoylamino)benzoyl]-2,3,4,5-tetrahydro-1H-benzoazepine]
0.009 µM | 0.084 µM | 0.016 µM | COc1cc(NC(=O)c2ccccc2Cl)ccc1C(=O)N1CCCC(CC(=O)N2CCN(CC#N)CC2)c2cc(Cl)ccc21 (stereo not drawn) [Example 80, 5-(4-Cyanomethyl-1-piperazinyl)carbonylmethyl 7-chloro-1-[2-methoxy-4-(2-chlorobenzoylamino)benzoyl]-2,3,4,5-tetrahydro-1H-benzoazepine]
0.046 µM | 4.29 µM | 0.28 µM | COc1cc(NC(=O)c2ccccc2Cl)ccc1C(=O)N1CCCC(OCCSc2nccc(C)n2)c2cc(Cl)ccc21 (stereo not drawn) [Example 140]
0.002 µM | 0.058 µM | 0.01 µM | COc1cc(NC(=O)c2ccccc2Cl)ccc1C(=O)N1CCCC(CC(=O)N(C)CCO)c2cc(Cl)ccc21 (stereo not drawn) [Example 88, 5-[N-Methyl-N-(2-hydroxyethyl)amino]-carbonylmethyl-7-chloro-1-[2-methoxy-4-(2-chlorobenzoylamino)benzoyl]-2,3,4,5-tetrahydo-1H-benzoazepine]
0.013 µM | 0.095 µM | 0.014 µM | CCN1CCN(C(=O)COC2CCCN(C(=O)c3ccc(N4CCc5ccccc5C4=O)cc3)c3ccc(Cl)cc32)CC1 (stereo not drawn) [Example 128, 5-(4-Ethyl-1-piperazinyl)carbonylmethoxy-7-chloro-1-[4-(1-oxo-1,2,3,4-tetrahydroisoquinolin-2-yl)benzoyl]-2,3,4,5-tetrahydro-1H-benzoazepine]
0.0073 µM | 0.047 µM | 0.016 µM | COc1cc(NC(=O)c2ccccc2Cl)ccc1C(=O)N1CCCC(CC(=O)N2CCN(CC(=O)N3CCCC3)CC2)c2cc(Cl)ccc21 (stereo not drawn) [Example 157, 5-{4-[(1-Pyrrolidynyl)carbonylmethyl]-1-piperazinyl}carbonylmethyl-7-chloro-1-[2-methoxy-4-(2-chlorobenzoylamino)benzoyl]-2,3,4,5-tetrahydro-1H-benzoazepine]
0.008 µM | 0.094 µM | 0.016 µM | COc1cc(NC(=O)c2ccccc2Cl)ccc1C(=O)N1CCCC(CC(=O)N2CCN(CCO)CC2)c2cc(Cl)ccc21 (single isomer, unassigned) [Example 85, 5-[4-(2-Hydroxyethyl)-1-piperazinyl]-carbonylmethyl-7-chloro-1-[2-methoxy-4-(2-chlorobenzoylamino)benzoyl]-2,3,4,5-tetrahydro-1H-benzoazepine]
0.004 µM | 0.096 µM | 0.012 µM | COc1cc(NC(=O)c2ccccc2Cl)ccc1C(=O)N1CCCC(CC(=O)NCc2cnc(C)cn2)c2cc(Cl)ccc21 (stereo not drawn) [Example 134, 5-(5-Methyl-2-pyrazinyl)methylaminocarbonylmethyl-7-chloro-1-[2-methoxy-4-(2-chlorobenzoylamino)benzoyl]-2,3,4,5-tetrahydro-1H-benzoazepine]
0.038 µM | 1.13 µM | 0.098 µM | COc1cc(NC(=O)c2ccccc2Cl)ccc1C(=O)N1CCCC(OCCS(=O)(=O)c2ccncc2)c2cc(Cl)ccc21 (stereo not drawn) [Example 142, 5-[2-(4-Pyridyl)sulfonylethoxy]-7-chloro-1-[2-methoxy-4-(2-chlorobenzoylamino)benzoyl]-2,3,4,5-tetrahydro-1H-benzoazepine]
0.005 µM | 0.248 µM | 0.036 µM | CCN(CC)CCCNCCOC1CCCN(C(=O)c2ccc(NC(=O)c3ccccc3Cl)cc2OC)c2ccc(Cl)cc21 (stereo not drawn) [Example 153, 5-[2-(3-Diethylaminopropyl)aminoethoxy]-7-chloro-1-[2-methoxy-4-(2-chlorobenzoylamino)benzoyl]-2,3,4,5-tetrahydro-1H-benzoazepine]
0.007 µM | 0.416 µM | 0.024 µM | C#CCNCCOC1CCCN(C(=O)c2ccc(NC(=O)c3ccccc3Cl)cc2OC)c2ccc(Cl)cc21 (stereo not drawn) [Example 170, 5-(2-Propargylaminoethoxy)-7-chloro-1-[2-methoxy-4-(2-chlorobenzoylamino)benzoyl]-2,3,4,5-tetrahydro-1H-benzoazepine.cndot.hydrochloride]
